Test results taken from ChEMBL document CHEMBL4118120, “Identification of a novel selective small-molecule inhibitor of protein arginine methyltransferase 5 (PRMT5) by virtual screening, resynthesis and biological evaluations” (Bioorg Med Chem Lett, 2018).
pEC50, pIC50: −log10 of the molar value. The source made the active and inactive calls. The calls are words filed in the database; no cut-off is given here.

How the values were obtained:
[1] = target: T1, PRMT5/MEP50 complex (Homo sapiens) (UniProt O14744+Q9BQA1); experiment: (§1) Inhibition of recombinant human N-terminal FLAG-tagged PRMT5 (2 to end residues) /human N-terminal His-tagged MEP50 (2 to end residues) expressed in HEK293F cells at 50 uM using substrate pretreated for 15 mins followed by substrate and [3H]-SAM addition measured after 60 mins by scintillation proximity assay relative to control; format: cell-based
[2] = target: T1, PRMT5/MEP50 complex (Homo sapiens); experiment: as §1, with “at 100” for “at 50”; format: cell-based
PRMT5/MEP50 complex [3] = target: T2, PRMT5/MEP50 complex (Homo sapiens, UniProt O14744); experiment: as §1, with “cells” for “cells at 50 uM”, “assay” for “assay relative to control”; format: cell-based
T2 sequence (O14744 whole entry): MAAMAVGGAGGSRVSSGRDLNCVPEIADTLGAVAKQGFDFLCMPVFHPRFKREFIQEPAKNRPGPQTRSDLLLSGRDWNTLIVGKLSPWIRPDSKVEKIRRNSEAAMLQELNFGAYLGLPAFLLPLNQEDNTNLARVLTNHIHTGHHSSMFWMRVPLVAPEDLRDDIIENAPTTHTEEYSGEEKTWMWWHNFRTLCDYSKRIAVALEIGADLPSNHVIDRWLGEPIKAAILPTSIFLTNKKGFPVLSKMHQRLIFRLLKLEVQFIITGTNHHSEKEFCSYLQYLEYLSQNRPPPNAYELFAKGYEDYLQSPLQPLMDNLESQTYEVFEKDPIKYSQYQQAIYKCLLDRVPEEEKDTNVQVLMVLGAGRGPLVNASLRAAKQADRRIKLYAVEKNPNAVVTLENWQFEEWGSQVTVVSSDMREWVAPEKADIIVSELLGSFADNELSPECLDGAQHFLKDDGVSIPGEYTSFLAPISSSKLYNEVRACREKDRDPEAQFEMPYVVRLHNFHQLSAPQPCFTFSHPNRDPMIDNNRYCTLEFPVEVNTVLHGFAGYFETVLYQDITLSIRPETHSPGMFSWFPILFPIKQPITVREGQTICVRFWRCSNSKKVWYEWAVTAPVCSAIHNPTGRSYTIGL
T2 sequence (Q9BQA1 whole entry, further chain): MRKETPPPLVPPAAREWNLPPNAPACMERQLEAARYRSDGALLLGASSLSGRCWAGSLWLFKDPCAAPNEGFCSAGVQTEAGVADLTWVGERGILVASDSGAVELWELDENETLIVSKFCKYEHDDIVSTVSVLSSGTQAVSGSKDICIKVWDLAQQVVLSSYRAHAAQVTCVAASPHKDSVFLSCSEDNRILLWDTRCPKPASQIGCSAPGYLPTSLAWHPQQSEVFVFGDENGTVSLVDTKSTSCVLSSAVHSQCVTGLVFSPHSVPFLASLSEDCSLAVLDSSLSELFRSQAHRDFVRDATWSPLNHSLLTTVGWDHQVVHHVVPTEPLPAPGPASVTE

PRMT5/MEP50 complex [4] = target: T2, PRMT5/MEP50 complex; experiment: Inhibition of recombinant human N-terminal FLAG-tagged PRMT5 (2 to end residues) /human N-terminal His-tagged MEP50 (2 to end residues) expressed in HEK293F cells using substrate measured after 60 mins by Alphalisa assay; format: cell-based
[5] = target: Protein arginine N-methyltransferase 1 (Homo sapiens, UniProt Q99873); experiment: Inhibition of recombinant human N-terminal GST-tagged PRMT1 (2 to end residues) expressed in baculovirus infected Sf9 insect cells using peptide substrate pretreated for 15 mins followed by substrate/[3H]-SAM addition measured after 60 mins by scintillation proximity assay
Protein arginine N-methyltransferase 1, sequence (Q99873 whole entry): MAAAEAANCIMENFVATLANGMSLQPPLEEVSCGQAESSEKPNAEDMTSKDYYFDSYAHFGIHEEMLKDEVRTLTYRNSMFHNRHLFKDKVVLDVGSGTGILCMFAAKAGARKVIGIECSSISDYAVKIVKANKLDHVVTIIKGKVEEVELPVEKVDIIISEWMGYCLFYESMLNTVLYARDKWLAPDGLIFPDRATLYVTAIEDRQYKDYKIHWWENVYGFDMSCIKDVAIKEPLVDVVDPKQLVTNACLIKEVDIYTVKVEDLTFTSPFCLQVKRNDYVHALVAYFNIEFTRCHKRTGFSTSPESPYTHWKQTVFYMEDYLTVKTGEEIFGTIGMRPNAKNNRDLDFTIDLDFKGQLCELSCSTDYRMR

[6] = target: T3, Histone-arginine methyltransferase CARM1 (Homo sapiens, UniProt Q86X55); experiment: Inhibition of recombinant human N-terminal FLAG-tagged CARM1 (2 to end residues) expressed in HEK293F cells pretreated for 15 mins followed by substrate addition measured after 60 mins by Alphalisa assay; format: cell-based
T3 sequence (Q86X55 whole entry): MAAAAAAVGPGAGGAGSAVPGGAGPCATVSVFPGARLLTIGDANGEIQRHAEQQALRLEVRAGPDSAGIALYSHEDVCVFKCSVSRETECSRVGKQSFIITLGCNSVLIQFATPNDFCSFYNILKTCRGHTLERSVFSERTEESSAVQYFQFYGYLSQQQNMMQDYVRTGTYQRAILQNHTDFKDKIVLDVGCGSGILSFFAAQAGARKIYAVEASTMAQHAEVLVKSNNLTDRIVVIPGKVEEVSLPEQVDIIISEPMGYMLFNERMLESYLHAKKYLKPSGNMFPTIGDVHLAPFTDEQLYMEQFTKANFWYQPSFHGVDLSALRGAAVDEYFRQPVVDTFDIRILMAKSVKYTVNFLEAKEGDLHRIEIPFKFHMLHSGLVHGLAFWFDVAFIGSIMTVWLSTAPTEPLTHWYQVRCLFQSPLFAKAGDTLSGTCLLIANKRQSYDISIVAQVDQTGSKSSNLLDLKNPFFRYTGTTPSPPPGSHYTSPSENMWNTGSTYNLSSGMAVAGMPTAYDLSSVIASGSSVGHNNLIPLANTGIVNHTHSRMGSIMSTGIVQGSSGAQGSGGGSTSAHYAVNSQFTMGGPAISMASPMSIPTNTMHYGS

MV4-11 = experiment: Antiproliferative activity against human MV411 cells after 4 days by Celltiiter-Glo luminescence cell viability assay; conditions: MV4-11, 96 h
[7] = target: Protein arginine N-methyltransferase 5 (Homo sapiens) (UniProt O14744); experiment: Inhibition of PRMT5 in human MV411 cells assessed as upregulation of Gas1 expression at 30 uM by SYBR green dye based RT-qPCR analysis; format: cell-based
Protein arginine N-methyltransferase 5 (Homo sapiens), sequence (O14744 whole entry): as the sequence (O14744 whole entry) above

PRMT5/MEP50 complex [8] = target: T2, PRMT5/MEP50 complex; experiment: Inhibition of recombinant human N-terminal FLAG-tagged PRMT5 (2 to end residues) /human N-terminal His-tagged MEP50 (2 to end residues) expressed in HEK293F cells using biotinylated H4 derived peptide as substrate pretreated for 15 mins followed by substrate and [3H]-SAM addition measured after 60 mins by liquid scintillation counting method

Row | inhibition [1] [%] | Structure (SMILES) | other results
1 | 3.5 | COc1ccc(Cl)cc1C(=O)Nc1nc(-c2ccc(C)c(C)c2)cs1 | –
2 | 0 | CCOc1cc(C(=O)Nc2nc(-c3ccc(C)cc3C)cs2)cc(OCC)c1OCC | –
3 | 6 | COc1ccccc1Nc1nc(-c2ccc3ccccc3c2)cs1 | –
4 | 80 | Cc1ccc(C)c(-c2csc(Nc3ccc(O)c(C(=O)O)c3)n2)c1 | inhibition [2]: > 50%; pIC50 (PRMT5/MEP50 complex [3]): 4.46
5 | 20 | COc1ccc(OC)c(Nc2nc(-c3ccc(Cl)cc3Cl)cs2)c1 | –
6 | 25 | CCOc1ccc(-c2csc(Nc3ccc(Cl)cc3)n2)cc1[N+](=O)[O-] | –
7 | 0 | CCOc1ccccc1Nc1nc(-c2cc3cc(OC)ccc3oc2=O)cs1 | –
8 | 8 | COc1ccc(Br)cc1C(=O)NC(=S)Nc1nc(-c2ccccc2)cs1 | –
9 | 61 | O=C(O)COc1ccc(Br)cc1-c1csc(Nc2ccc(Br)cc2)n1 | pIC50 (PRMT5/MEP50 complex [3]): 4.36
10 | 28.1 | COc1ccc(-c2csc(Nc3ccc(Cl)c(Cl)c3)n2)cc1 | –
11 | 24 | COc1cc(Nc2nc(-c3cc(C)ccc3C)cs2)c(OC)cc1Cl | –
12 | 95 | COc1ccc(-c2csc(Nc3ccc(O)c(C(=O)O)c3)n2)cc1C | pIC50 (PRMT5/MEP50 complex [3]): 4.85; pIC50 [5]: < 4.00; pIC50 [6]: < 4.00; pEC50 (MV4-11): 4.65; inhibition [7]: Active
13 | 9 | COc1ccc(-c2csc(NC(=S)NC(=O)c3ccc(C(C)(C)C)cc3)n2)cc1Br | –
14 | 25 | COc1ccc(-c2csc(Nc3ccc4c(c3)OCO4)n2)cc1Br | –
15 | 71 | Cc1cc(-c2csc(Nc3ccc(O)c(C(=O)O)c3)n2)ccc1F | pIC50 (PRMT5/MEP50 complex [3]): 4.66

Continued, compound first:

Row | Structure (SMILES) | inhibition [1] [%] | other results
16 | COc1cc(Cl)c(OC)c(Nc2nc(-c3ccc(C)cc3)cs2)c1 | 33 | –
17 | COc1ccc(-c2csc(NC(=O)c3ccccc3Cl)n2)cc1C | 3.5 | –
18 | CC[n+]1c(-c2ccccc2)csc1Nc1ccc(O)c(C(=O)O)c1 | 7 | –
19 | COc1ccccc1Nc1nc(-c2cc3cc(Br)ccc3oc2=O)cs1 | 9 | –
20 | COc1ccc(-c2csc(NC3=CS(=O)(=O)c4ccccc43)n2)cc1OC | 21 | –
21 | NC(=O)N/N=C/c1ccc(-c2ccc(Cl)cc2)o1 | – | pIC50 (PRMT5/MEP50 complex [4]): 6.24
22 | COc1cccc(Nc2nc(-c3ccc(OC)c(Br)c3)cs2)c1 | 27.4 | –
23 | COc1ccc(OC)c(Nc2nc(-c3ccc4ccccc4c3)cs2)c1 | 23 | –
24 | CCN(CC)CCCNC(=O)c1ccc(OC)c([N+](=O)[O-])c1 | – | inhibition [2]: > 50%; pIC50 (PRMT5/MEP50 complex [3]): 4.38
25 | COc1ccc(Nc2nc(-c3ccc(OCc4ccc([N+](=O)[O-])cc4)cc3)cs2)cc1 | 0 | –
26 | COc1ccc(Nc2nc(-c3ccc(OCc4ccc(Br)cc4)cc3)cs2)cc1 | 0 | –
27 | CCCOc1ccc(Nc2nc(-c3cc4cc(OC)ccc4oc3=O)cs2)cc1 | 7 | –
28 | COc1ccc(Nc2nc(-c3cc4ccccc4o3)cs2)cc1 | 10 | –
29 | COc1cc(Br)c(Br)c(/C=N/c2cccc(-c3nc4ccccc4[nH]3)c2)c1O | – | inhibition [2]: > 50%; pIC50 (PRMT5/MEP50 complex [3]): 4.32
30 | OC(CNCc1c(OCc2ccccc2)ccc2ccccc12)c1ccccc1 (configuration not stated) | – | pIC50 (PRMT5/MEP50 complex [8]): 5.55
31 | COc1ccc(-c2csc(Nc3ccc(C)c(Cl)c3)n2)cc1F | 26.4 | –
